Each molecule was assayed against T1, Human complement C1s enzyme (Homo sapiens, UniProt P09871) (assay: Human C1s enzyme assay). Settings: human complement C1s enzyme 1.16 nM, substrate Z-L-Lys-SBzl 100 μM, 5 min preincubation; read-out: IC50 (Stars), C1s Inhibiting Activity.
T1 sequence (P09871 438-688 limits assumed): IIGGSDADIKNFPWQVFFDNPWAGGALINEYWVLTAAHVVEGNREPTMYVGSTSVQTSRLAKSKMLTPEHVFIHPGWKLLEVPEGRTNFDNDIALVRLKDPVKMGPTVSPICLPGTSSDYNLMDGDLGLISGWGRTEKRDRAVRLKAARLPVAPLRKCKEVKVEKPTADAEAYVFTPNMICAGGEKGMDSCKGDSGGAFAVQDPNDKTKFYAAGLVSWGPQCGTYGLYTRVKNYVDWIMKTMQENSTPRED
T1 sequence (P09871 16-437 partner limits assumed): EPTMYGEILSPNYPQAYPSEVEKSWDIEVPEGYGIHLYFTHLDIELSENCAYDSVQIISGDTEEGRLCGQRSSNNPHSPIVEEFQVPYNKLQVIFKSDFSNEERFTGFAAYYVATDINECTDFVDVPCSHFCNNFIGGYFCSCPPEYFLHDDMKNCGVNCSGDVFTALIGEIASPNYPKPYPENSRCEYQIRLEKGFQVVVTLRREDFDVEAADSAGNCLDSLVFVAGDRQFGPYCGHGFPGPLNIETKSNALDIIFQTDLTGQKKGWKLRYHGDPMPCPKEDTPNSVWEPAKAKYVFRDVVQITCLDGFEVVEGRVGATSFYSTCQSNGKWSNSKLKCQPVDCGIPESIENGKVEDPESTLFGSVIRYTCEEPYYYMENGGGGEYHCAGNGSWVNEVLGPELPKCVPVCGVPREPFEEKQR
Format: biochemical
Protocol: Other standard complement assays are also available.
Human complement C1s enzyme (purified from human serum, Complement Technology, Inc.) at 1.16 nM final concentration was incubated with test compound at various concentrations for 5 min at room temperature in 50 mM Tris, 1 M NaCl, pH 7.5. A synthetic substrate Z-L-Lys-SBzl and DTNB (Ellman's reagent) were added to final concentrations of 100 μM each. Absorbance at 405 nm (A405) was recorded at 30 second intervals for 30 min using a microplate spectrophotometer. IC50 values were calculated by nonlinear regression of complement C1 s reaction rates as a function of test compound concentration.
ND indicates a compound for which the IC50 value is not determined.

| IC50 | Structure (SMILES) |
| --- | --- |
| < 100 nM | C[C@@H](NC(=O)[C@@H]1CC2(CCCCC2)CN1C(=O)CNC(=O)c1ccc2c(c1)Oc1ccccc1S2)c1cc2cnccc2[nH]1 [Compound 234, (S)-N-((R)-1-(1H-pyrrolo[3,2-c]pyridin-2-yl)ethyl)-2-((phenoxathiine-3-carbonyl)glycyl)-2-azaspiro[4.5]decane-3-carboxamide] |
| < 100 nM | C[C@@H](NC(=O)C1CSCN1C(=O)CNC(=O)c1ccc2c(c1)Oc1ccccc1S2)c1cc2cnccc2[nH]1 (stereo partly drawn) [Compound 289, N-((R)-1-(1H-pyrrolo[3,2-c]pyridin-2-yl)ethyl)-3-((phenoxathiine-3-carbonyl)glycyl)thiazolidine-4-carboxamide] |
| > 1000 nM | CO[C@@H]1CCN(C(=O)CNC(=O)c2ccc3c(c2)Oc2ccccc2S3)[C@@H]1C(=O)NCc1cc2cnccc2[nH]1 [Compound 285] |
| > 1000 nM | COC[C@@]1(F)C[C@@H](C(=O)N[C@@H](C)c2cc3cnccc3[nH]2)N(C(=O)CNC(=O)c2ccc(Oc3ccccc3)cc2)C1 [Compound 21, (2S,4R)-N-((S)-1-(1H-pyrrolo[3,2-c]pyridin-2-yl)ethyl)-4-fluoro-4-(methoxymethyl)-1-((4-phenoxybenzoyl)glycyl)pyrrolidine-2-carboxamide] |
| > 1000 nM | C[C@@]12C[C@@H]1N(C(=O)CNC(=O)c1ccc(Oc3ccccc3)cc1)[C@H](C(=O)NCc1cccc(Cl)c1Cl)C2 [Compound 13, (1S,3S,5S)-N-(2,3-dichlorobenzyl)-5-methyl-2-((4-phenoxybenzoyl)glycyl)-2-azabicyclo[3.1.0]hexane-3-carboxamide] |
| > 1000 nM | O=C(NCC(=O)N1CC2(C[C@H]1C(=O)NCc1cc3cncc(F)c3[nH]1)OCCO2)c1ccc2c(c1)Oc1ccccc1S2 [Compound 45, (S)-N-((7-fluoro-1H-pyrrolo[3,2-c]pyridin-2-yl)methyl)-7-((phenoxathiine-3-carbonyl)glycyl)-1,4-dioxa-7-azaspiro[4.4]nonane-8-carboxamide] |
| < 100 nM | C[C@@]12C[C@@H]1N(C(=O)CNC(=O)CCCOc1ccccc1)[C@H](C(=O)NCc1cc3cnccc3[nH]1)C2 [Compound 58, (1S,3S,5S)-N-((1H-pyrrolo[3,2-c]pyridin-2-yl)methyl)-5-methyl-2-((4-phenoxybutanoyl)glycyl)-2-azabicyclo[3.1.0]hexane-3-carboxamide] |
| < 100 nM | C[C@@]12C[C@@H]1N(C(=O)CNC(=O)c1cccc(Oc3ccc(F)cc3)c1)[C@H](C(=O)NCc1cc3cnccc3s1)C2 [Compound 252, (1S,3S,5S)-2-((3-(4-fluorophenoxy)benzoyl)glycyl)-5-methyl-N-(thieno[3,2-c]pyridin-2-ylmethyl)-2-azabicyclo[3.1.0]hexane-3-carboxamide] |
| > 1000 nM | O=C(NCC(=O)N1CC2(C[C@H]1C(=O)NCc1cc3cnc(Cl)cc3[nH]1)OCCO2)c1ccc2c(c1)Oc1ccccc1S2 [Compound 43, (S)-N-((6-chloro-1H-pyrrolo[3,2-c]pyridin-2-yl)methyl)-7-((phenoxathiine-3-carbonyl)glycyl)-1,4-dioxa-7-azaspiro[4.4]nonane-8-carboxamide] |
| < 100 nM | C[C@@H](NC(=O)[C@@H]1C[C@@H](c2nccs2)CN1C(=O)CNC(=O)c1ccc2c(c1)Oc1ccccc1S2)c1cc2cnccc2[nH]1 [Compound 150, (2S,4R)-N-((R)-1-(1H-pyrrolo[3,2-c]pyridin-2-yl)ethyl)-1-((phenoxathiine-3-carbonyl)glycyl)-4-(thiazol-2-yl)pyrrolidine-2-carboxamide] |
| < 100 nM | Cc1cc(C(=O)NCC(=O)N2C[C@H](OC(F)F)C[C@H]2C(=O)N[C@H](C)c2cc3cnccc3[nH]2)ccc1Oc1ccc(F)cc1 [Compound 143, (2S,4R)-N-((R)-1-(1H-pyrrolo[3,2-c]pyridin-2-yl)ethyl)-4-(difluoromethoxy)-1-((4-(4-fluorophenoxy)-3-methylbenzoyl)glycyl)pyrrolidine-2-carboxamide] |
| 100 to 1000 nM | O=C(Cc1ccc(Cl)c(Cl)c1)NCC(=O)N1CC2(C[C@H]1C(=O)NCc1cc3cnccc3[nH]1)OCCO2 [Compound 280, (S)-N-((1H-pyrrolo[3,2-c]pyridin-2-yl)methyl)-7-((2-(3,4-dichlorophenyl)acetyl)glycyl)-1,4-dioxa-7-azaspiro[4.4]nonane-8-carboxamide] |
| > 1000 nM | C[C@@]12C[C@@H]1N(C(=O)CNC(=O)CCCOc1ccccc1)[C@H](C(=O)N[C@@H]1CCN(C(=O)CCN)C1)C2 [Compound 60, (1S,3S,5S)-N-((R)-1-(3-aminopropanoyl)pyrrolidin-3-yl)-5-methyl-2-((4-phenoxybutanoyl)glycyl)-2-azabicyclo[3.1.0]hexane-3-carboxamide] |
| < 100 nM | C[C@@H](NC(=O)[C@@H]1C[C@@H](S(C)(=O)=O)CN1C(=O)CNC(=O)c1ccc2c(c1)-c1ccccc1C2(F)F)c1cc2cnccc2[nH]1 [Compound 72, (2S,4R)-N-((R)-1-(1H-pyrrolo[3,2-c]pyridin-2-yl)ethyl)-1-((9,9-difluoro-9H-fluorene-3-carbonyl)glycyl)-4-(methylsulfonyl)pyrrolidine-2-carboxamide] |
| > 1000 nM | O=C(NCC(=O)N1C[C@H](OC(F)F)C[C@H]1C(=O)NCc1ccc2ocnc2c1)c1ccc2c(c1)Oc1ccccc1S2 [Compound 282, (2S,4R)-N-(benzo[d]oxazol-5-ylmethyl)-4-(difluoromethoxy)-1-((phenoxathiine-3-carbonyl)glycyl)pyrrolidine-2-carboxamide] |
| 100 to 1000 nM | O=C(NCC(=O)N1CC2(C[C@H]1C(=O)NCc1cc3cnccc3o1)OCCO2)c1ccc2c(c1)Oc1ccccc1S2 [Compound 50, (S)-N-(furo[3,2-c]pyridin-2-ylmethyl)-7-((phenoxathiine-3-carbonyl)glycyl)-1,4-dioxa-7-azaspiro[4.4]nonane-8-carboxamide] |
| < 100 nM | C[C@@]12C[C@@H]1N(C(=O)CNC(=O)c1ccc3c(c1)Oc1ccccc1S3)[C@H](C(=O)NCc1cc3cnccn3c1)C2 [Compound 271, (1S,3S,5S)-5-methyl-2-((phenoxathiine-3-carbonyl)glycyl)-N-(pyrrolo[1,2-a]pyrazin-7-ylmethyl)-2-azabicyclo[3.1.0]hexane-3-carboxamide] |
| > 1000 nM | COC[C@@]1(F)C[C@@H](C(=O)N[C@H](C)c2cc3cnccc3[nH]2)N(C(=O)CNC(=O)c2ccc(-c3ccc(F)cc3F)cc2)C1 [Compound 70, (2S,4R)-N-((R)-1-(1H-pyrrolo[3,2-c]pyridin-2-yl)ethyl)-1-((2′,4′-difluoro-[1,1′-biphenyl]-4-carbonyl)glycyl)-4-fluoro-4-(methoxymethyl)pyrrolidine-2-carboxamide] |
| < 100 nM | O=C(NCC(=O)N1C[C@H](OC(F)F)C[C@H]1C(=O)NCc1cc2c(s1)CNCC2)c1ccc2c(c1)Oc1ccccc1S2 [Compound 210, (2S,4R)-4-(difluoromethoxy)-1-((phenoxathiine-3-carbonyl)glycyl)-N-((4,5,6,7-tetrahydrothieno[2,3-c]pyridin-2-yl)methyl)pyrrolidine-2-carboxamide] |
| < 100 nM | O=C(NCC(=O)N1C[C@H](OC(F)F)C[C@H]1C(=O)NCc1cc2cnccc2[nH]1)c1cc2c(cc1F)Sc1ccccc1O2 [Compound 355, (2S,4R)-N-((1H-pyrrolo[3,2-c]pyridin-2-yl)methyl)-4-(difluoromethoxy)-1-((2-fluorophenoxathiine-3-carbonyl)glycyl)pyrrolidine-2-carboxamide] |
| 100 to 1000 nM | C[C@@H](NC(=O)[C@@H]1CC2(CN1C(=O)CN1Cc3cc(-c4ccc(F)cc4)ccc3C1=O)OCCO2)c1cc2cnccc2[nH]1 [Compound 123, (S)-N-((R)-1-(1H-pyrrolo[3,2-c]pyridin-2-yl)ethyl)-7-(2-(5-(4-fluorophenyl)-1-oxoisoindolin-2-yl)acetyl)-1,4-dioxa-7-azaspiro[4.4]nonane-8-carboxamide] |
| > 1000 nM | C[C@@]12C[C@@H]1N(C(=O)CNC(=O)CCCOc1ccccc1)[C@H](C(=O)NCc1cnc3c(CN)cccn13)C2 [Compound 63, (1S,3S,5S)-N-((8-(aminomethyl)imidazo[1,2-a]pyridin-3-yl)methyl)-5-methyl-2-((4-phenoxybutanoyl)glycyl)-2-azabicyclo[3.1.0]hexane-3-carboxamide] |
| > 1000 nM | O=C(NCC(=O)N1C[C@H](OC(F)F)C[C@H]1C(=O)NCc1ccc2cc[nH]c2n1)c1ccc2c(c1)Oc1ccccc1S2 [Compound 229, (2S,4R)-N-((1H-pyrrolo[2,3-b]pyridin-6-yl)methyl)-4-(difluoromethoxy)-1-((phenoxathiine-3-carbonyl)glycyl)pyrrolidine-2-carboxamide] |

From patent publication US20260062443A1 (ALEXION PHARMACEUTICALS, INC., priority 2022, published 2026)
